The values that follow come from ChEMBL document CHEMBL1221244, “Total synthesis and biological evaluation of tambjamine K and a library of unnatural analogs” (Bioorg Med Chem Lett, 2010).

Calls of active or inactive are those of the source. No cut-off for these calls is given here.

One test concerns HCT-116. Briefly: Antiproliferative activity against human HCT116 cells after 48 hrs by WST-1 assay. The following applies: HCT-116, 48 h. It counts as functional, cell-based. (Tetrazolium dyes change colour on reduction, which living cells bring about.)
Test [1] has as its system MDA-MB-231. Put plainly: Antiproliferative activity against human MDA-MB-231 cells after 48 hrs by WST-1 assay. It counts as functional, cell-based. The conditions noted are these: MDA-MB-231, 48 h.
For the next test, the system named is Caco-2. Briefly: Antiproliferative activity against human Caco-2 cells. It counts as functional, cell-based.
A further test has as its system MCF7. Put plainly: Antiproliferative activity against human MCF7 cells assessed as cell viability at 10 uM after 48 hrs by WST-1 assay. The conditions noted are these: MCF7, 48 h, read-out: Activity. The format is functional.
For another test, the system named is SW-620. Briefly: Antiinvasive activity against human SW620 cells at 10 uM after 24 hrs. It counts as functional, cell-based.
Test [2] relates to MDA-MB-231. Put plainly: Antiproliferative activity against human MDA-MB-231 cells assessed as cell viability at 10 uM after 48 hrs by WST-1 assay. It counts as functional. The conditions noted are these: MDA-MB-231, 48 h, read-out: Activity.
The test system of a further test is NCI-H520. Briefly: Antiproliferative activity against human NCIH520 cells after 48 hrs after 48 hrs by WST-1 assay. The format is functional, cell-based.

Take `COC1=CC(c2ccc[nH]2)=N/C1=C\NCCC(C)C` [TAMBJAMINE K]: the IC50 in the test on HCT-116 worked out at 13.7 µM; in the test with MDA-MB-231 [1], 15.3 µM; in the test on Caco-2 it was 0.0033 µM.
With `COC1=CC(c2ccc[nH]2)=N/C1=C\NC1Cc2ccccc2C1`, the viability at 10 µM with MCF7 was less than 20%. Also, the result in the test with SW-620 was inactive.
Take `COC1=CC(c2ccc[nH]2)=N/C1=C\NCC1CCCCC1`: the viability at 10 µM with MCF7 is less than 20%.
For `CO[C@@H]1CC(c2ccc[nH]2)=N[C@]12O[C@@H](C)C[C@@H]1CCCCCCCc3ccc([nH]3)[C@H]12` [MARINEOSIN A], the half-inhibitory concentration (IC50) with HCT-116 amounted to 0.14 µM; with MDA-MB-231 [1] it was 0.36 µM.
Consider `COC1=CC(c2ccc[nH]2)=N/C1=C\NC1CCc2ccccc21` (configuration not stated), for which the viability at 10 µM in the test on MCF7 was less than 20%.
For the compound `COC1=CC(c2ccc[nH]2)=N/C1=C/c1ccc(CCCCCCC/C=C/C(C)=O)[nH]1`, the values for the IC50 in the test with HCT-116 and in the test with MDA-MB-231 [1] were 3.6 µM and 3.5 µM, respectively.
As to `CCCC(C)N/C=C1\N=C(c2ccc[nH]2)C=C1OC` (configuration not stated), in the test with MCF7, the viability at 10 µM was less than 20%.
For the compound `COC1=CC(c2ccc[nH]2)=N/C1=C\NC1CCCc2ccccc21` (configuration not stated), the IC50 with HCT-116 was 1.8 µM; with MDA-MB-231 [1], 4 µM. In addition, the viability at 10 µM in the test with MCF7 is less than 10%; with MDA-MB-231 [2], 40%. For the same compound, the outcome in the test on NCI-H520 was inactive.

In general, IC50 refers to the concentration needed to halve the response being measured. A low value points to greater potency in that assay.
